Data as given in the kinase profiling compilation of Christmann-Franck et al. (2016).
Values belong to the compound of their own block, whether it stands above or below them.

Experiments:
Assay in all cases: KINOMEscan competition binding
Conditions in all cases: compound 10.0 µM
MINK1 (human) = MINK1 (human) (UniProt Q8N4C8)
PHKG2 (human) = PHKG2 (human) (UniProt P15735)
CLK3 (human) = CLK3 (human) (UniProt P49761)
RIOK1 (human) = RIOK1 (human) (UniProt Q9BRS2)
[1] = tested on: FLT3 (human), P36888 [K663Q]
MAP3K5 (human) = MAP3K5 (human) (UniProt Q99683)
CAMKK1 (human) = CAMKK1 (human) (UniProt Q8N5S9)
BMPR1B (human) = BMPR1B (human) (UniProt O00238)
NEK2 (human) = NEK2 (human) (UniProt P51955)
[2] = tested on: FLT3 (human), P36888 [N841I]
CHUK (human) = CHUK (human) (UniProt O15111)
CSNK1G3 (human) = CSNK1G3 (human) (UniProt Q9Y6M4)
ACVR2B (human) = ACVR2B (human) (UniProt Q13705)
DAPK1 (human) = DAPK1 (human) (UniProt P53355)
[3] = biological target: JAK1 JH2 pseudokinase (human) (UniProt P23458)
ACVR2A (human) = ACVR2A (human) (UniProt P27037)
PIP4K2B (human) = PIP4K2B (human) (UniProt P78356)
MYLK3 (human) = MYLK3 (human) (UniProt Q32MK0)
RIPK4 (human) = RIPK4 (human) (UniProt P57078)
PDGFRB (human) = PDGFRB (human) (UniProt P09619)
TAOK3 (human) = TAOK3 (human) (UniProt Q9H2K8)
[4] = biological target: JAK3 JH1 catalytic (human) (UniProt P52333)
[5] = tested on: EIF2AK4 KD2 (human), Q9P2K8 [S808G]
[6] = tested on: KIT (human), P10721 [V559D]
RIOK2 (human) = RIOK2 (human) (UniProt Q9BVS4)
TGFBR2 (human) = TGFBR2 (human) (UniProt P37173)
AURKC (human) = AURKC (human) (UniProt Q9UQB9)
STK16 (human) = STK16 (human) (UniProt O75716)
CDK16 (human) = CDK16 (human) (UniProt Q00536)
MAP2K4 (human) = MAP2K4 (human) (UniProt P45985)
ACVR1 (human) = ACVR1 (human) (UniProt Q04771)
DCLK3 (human) = DCLK3 (human) (UniProt Q9C098)
[7] = tested on: FLT3 (human), P36888 [D835H]
MAP4K4 (human) = MAP4K4 (human) (UniProt O95819)
KIT (human) = KIT (human) (UniProt P10721)
SRPK3 (human) = SRPK3 (human) (UniProt Q9UPE1)
STK24 (human) = STK24 (human) (UniProt Q9Y6E0)
TNK1 (human) = TNK1 (human) (UniProt Q13470)
STK17A (human) = STK17A (human) (UniProt Q9UEE5)
CSNK1G1 (human) = CSNK1G1 (human) (UniProt Q9HCP0)
FLT3 (human) = FLT3 (human) (UniProt P36888)
RPS6KA5 KD2 (human) = RPS6KA5 KD2 (human) (UniProt O75582)

TNK1 (human), sequence (Q13470 whole entry, looked up): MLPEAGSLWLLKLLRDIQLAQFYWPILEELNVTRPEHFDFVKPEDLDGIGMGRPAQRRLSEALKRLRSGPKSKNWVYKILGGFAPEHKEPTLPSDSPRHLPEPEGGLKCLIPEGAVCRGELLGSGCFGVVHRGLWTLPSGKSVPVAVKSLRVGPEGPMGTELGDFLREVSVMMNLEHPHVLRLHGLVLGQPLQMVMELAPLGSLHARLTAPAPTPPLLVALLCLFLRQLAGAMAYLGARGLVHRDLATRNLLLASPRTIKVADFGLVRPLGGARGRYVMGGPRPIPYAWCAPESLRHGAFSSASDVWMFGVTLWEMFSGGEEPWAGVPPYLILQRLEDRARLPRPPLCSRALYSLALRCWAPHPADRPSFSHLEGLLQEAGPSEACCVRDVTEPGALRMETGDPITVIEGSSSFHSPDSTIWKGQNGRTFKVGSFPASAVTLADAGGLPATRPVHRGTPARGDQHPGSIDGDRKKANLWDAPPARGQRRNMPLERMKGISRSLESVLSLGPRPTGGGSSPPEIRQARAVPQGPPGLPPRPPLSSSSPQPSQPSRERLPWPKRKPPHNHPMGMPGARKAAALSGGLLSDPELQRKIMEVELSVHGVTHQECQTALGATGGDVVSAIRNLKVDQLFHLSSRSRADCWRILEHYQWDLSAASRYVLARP
CAMKK1 (human), sequence (Q8N5S9 whole entry, looked up): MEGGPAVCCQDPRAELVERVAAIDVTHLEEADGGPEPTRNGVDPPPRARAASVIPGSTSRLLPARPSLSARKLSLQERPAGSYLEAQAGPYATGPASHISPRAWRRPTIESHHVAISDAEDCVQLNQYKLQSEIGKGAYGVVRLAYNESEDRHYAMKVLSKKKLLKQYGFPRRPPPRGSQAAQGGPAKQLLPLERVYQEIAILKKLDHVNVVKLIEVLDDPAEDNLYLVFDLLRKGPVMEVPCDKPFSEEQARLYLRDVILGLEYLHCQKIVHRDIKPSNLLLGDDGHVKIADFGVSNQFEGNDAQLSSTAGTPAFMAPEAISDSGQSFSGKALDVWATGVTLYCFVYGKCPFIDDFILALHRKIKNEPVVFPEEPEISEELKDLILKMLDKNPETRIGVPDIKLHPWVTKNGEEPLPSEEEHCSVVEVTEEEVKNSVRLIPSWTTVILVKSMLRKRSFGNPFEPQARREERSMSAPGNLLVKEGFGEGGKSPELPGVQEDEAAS
CDK16 (human), sequence (Q00536 whole entry, looked up): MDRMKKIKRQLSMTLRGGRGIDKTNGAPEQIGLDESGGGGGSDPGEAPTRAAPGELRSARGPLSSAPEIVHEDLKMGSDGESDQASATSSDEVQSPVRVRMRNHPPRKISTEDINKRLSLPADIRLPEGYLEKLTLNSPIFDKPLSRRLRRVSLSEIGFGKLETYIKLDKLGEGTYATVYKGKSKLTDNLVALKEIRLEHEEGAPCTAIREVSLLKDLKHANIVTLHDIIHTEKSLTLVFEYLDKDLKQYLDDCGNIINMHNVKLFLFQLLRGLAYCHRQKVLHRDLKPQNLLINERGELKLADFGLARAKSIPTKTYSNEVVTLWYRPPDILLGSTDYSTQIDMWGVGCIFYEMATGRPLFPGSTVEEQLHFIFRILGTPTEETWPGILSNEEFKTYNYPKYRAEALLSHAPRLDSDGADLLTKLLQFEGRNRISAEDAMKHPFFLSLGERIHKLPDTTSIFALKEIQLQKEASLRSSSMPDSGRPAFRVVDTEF
RIOK1 (human), sequence (Q9BRS2 whole entry, looked up): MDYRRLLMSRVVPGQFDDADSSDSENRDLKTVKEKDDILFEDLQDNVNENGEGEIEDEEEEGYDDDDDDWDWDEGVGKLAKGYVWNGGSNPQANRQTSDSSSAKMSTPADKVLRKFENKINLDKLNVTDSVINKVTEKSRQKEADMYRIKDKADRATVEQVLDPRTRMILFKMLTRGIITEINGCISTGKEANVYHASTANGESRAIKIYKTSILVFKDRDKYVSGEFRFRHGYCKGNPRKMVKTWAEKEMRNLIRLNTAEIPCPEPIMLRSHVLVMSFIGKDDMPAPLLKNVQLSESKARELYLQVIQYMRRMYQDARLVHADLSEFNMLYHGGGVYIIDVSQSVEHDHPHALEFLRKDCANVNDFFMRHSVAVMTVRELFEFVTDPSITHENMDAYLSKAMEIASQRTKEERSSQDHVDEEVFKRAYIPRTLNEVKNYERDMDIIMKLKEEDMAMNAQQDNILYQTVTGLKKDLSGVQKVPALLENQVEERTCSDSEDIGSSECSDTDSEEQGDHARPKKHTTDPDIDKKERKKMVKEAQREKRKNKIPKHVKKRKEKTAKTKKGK
BMPR1B (human), sequence (O00238 whole entry, looked up): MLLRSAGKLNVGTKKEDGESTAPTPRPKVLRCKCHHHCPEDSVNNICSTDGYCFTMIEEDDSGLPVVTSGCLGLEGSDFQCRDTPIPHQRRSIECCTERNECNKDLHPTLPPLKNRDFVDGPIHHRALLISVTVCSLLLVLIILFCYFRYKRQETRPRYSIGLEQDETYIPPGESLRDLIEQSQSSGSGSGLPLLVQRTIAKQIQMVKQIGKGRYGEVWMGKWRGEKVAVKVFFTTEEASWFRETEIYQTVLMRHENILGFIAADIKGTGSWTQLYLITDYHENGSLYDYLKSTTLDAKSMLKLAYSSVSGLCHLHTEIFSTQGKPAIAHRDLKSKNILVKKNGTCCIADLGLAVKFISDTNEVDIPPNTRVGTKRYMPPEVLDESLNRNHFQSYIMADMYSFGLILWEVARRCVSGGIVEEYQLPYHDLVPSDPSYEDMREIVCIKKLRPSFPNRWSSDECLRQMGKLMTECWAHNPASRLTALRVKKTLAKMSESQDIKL
NEK2 (human), sequence (P51955 whole entry, looked up): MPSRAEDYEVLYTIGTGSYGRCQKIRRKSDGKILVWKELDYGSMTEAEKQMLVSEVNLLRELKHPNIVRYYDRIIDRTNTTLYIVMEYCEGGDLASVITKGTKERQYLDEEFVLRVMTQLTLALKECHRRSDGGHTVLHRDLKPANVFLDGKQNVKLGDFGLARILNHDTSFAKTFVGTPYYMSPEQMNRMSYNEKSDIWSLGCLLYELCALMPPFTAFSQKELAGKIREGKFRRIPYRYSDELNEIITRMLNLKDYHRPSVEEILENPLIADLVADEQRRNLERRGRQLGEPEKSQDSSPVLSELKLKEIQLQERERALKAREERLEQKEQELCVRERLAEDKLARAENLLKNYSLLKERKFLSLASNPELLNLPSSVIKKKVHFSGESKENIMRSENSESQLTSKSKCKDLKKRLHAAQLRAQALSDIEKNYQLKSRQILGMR
TGFBR2 (human), sequence (P37173 whole entry, looked up): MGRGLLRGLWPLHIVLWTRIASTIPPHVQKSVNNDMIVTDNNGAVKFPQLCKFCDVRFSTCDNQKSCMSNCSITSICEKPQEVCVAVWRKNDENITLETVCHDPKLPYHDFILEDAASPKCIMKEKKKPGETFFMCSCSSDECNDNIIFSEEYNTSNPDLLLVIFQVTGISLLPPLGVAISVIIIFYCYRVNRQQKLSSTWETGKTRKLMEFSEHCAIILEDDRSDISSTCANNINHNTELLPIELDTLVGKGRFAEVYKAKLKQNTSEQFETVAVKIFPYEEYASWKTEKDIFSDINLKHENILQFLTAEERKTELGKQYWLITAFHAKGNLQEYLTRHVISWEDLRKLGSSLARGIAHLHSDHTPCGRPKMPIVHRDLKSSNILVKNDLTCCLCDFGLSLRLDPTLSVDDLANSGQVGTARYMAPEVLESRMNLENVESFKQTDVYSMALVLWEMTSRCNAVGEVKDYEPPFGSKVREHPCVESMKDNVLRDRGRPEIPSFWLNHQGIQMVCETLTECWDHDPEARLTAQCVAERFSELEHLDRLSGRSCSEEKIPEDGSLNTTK
TAOK3 (human), sequence (Q9H2K8 whole entry, looked up): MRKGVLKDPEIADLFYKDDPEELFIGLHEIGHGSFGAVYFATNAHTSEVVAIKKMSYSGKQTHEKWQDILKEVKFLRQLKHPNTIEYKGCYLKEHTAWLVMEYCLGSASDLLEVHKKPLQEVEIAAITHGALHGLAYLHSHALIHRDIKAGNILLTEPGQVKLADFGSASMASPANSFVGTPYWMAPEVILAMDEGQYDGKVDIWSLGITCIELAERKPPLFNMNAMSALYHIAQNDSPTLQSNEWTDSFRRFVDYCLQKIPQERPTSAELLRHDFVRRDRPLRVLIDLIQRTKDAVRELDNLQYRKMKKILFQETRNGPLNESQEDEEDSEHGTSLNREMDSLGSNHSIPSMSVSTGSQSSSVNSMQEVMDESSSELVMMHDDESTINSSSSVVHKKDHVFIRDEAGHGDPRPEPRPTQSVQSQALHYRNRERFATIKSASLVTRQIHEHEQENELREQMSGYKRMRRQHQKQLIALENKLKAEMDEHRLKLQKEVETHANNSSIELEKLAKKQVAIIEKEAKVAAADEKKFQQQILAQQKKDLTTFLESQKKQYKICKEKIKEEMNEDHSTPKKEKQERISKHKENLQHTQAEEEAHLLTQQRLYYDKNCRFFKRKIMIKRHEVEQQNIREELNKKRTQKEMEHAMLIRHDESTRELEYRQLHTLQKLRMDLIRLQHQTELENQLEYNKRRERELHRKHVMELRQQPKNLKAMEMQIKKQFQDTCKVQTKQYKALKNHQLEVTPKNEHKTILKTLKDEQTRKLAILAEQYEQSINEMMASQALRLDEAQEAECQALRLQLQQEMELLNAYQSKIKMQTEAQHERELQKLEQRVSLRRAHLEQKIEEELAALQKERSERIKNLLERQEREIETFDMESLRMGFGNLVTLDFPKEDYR
STK16 (human), sequence (O75716 whole entry, looked up): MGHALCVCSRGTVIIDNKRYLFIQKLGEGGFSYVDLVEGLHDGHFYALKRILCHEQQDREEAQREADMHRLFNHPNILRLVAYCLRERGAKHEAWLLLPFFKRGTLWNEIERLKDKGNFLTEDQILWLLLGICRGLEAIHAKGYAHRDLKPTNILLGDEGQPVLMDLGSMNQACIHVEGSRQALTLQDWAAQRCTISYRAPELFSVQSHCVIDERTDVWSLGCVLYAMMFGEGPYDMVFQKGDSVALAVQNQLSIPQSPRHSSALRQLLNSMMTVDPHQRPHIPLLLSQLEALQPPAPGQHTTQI

kinase still bound, per cent of control (MINK1 (human)): 60%
kinase still bound, per cent of control (PHKG2 (human)): 68%
kinase still bound, per cent of control (CLK3 (human)): 100%
kinase still bound, per cent of control (RIOK1 (human)): 100%
kinase still bound, per cent of control [1]: 96%
kinase still bound, per cent of control (MAP3K5 (human)): 100%
kinase still bound, per cent of control (CAMKK1 (human)): 77%
kinase still bound, per cent of control (BMPR1B (human)): 88%
kinase still bound, per cent of control (NEK2 (human)): 62%
kinase still bound, per cent of control [2]: 93%
kinase still bound, per cent of control (CHUK (human)): 79%
kinase still bound, per cent of control (CSNK1G3 (human)): 90%
kinase still bound, per cent of control (ACVR2B (human)): 100%
kinase still bound, per cent of control (DAPK1 (human)): 44%
kinase still bound, per cent of control [3]: 70%
kinase still bound, per cent of control (ACVR2A (human)): 100%
kinase still bound, per cent of control (PIP4K2B (human)): 100%
kinase still bound, per cent of control (MYLK3 (human)): 100%
kinase still bound, per cent of control (RIPK4 (human)): 79%
kinase still bound, per cent of control (PDGFRB (human)): 87%
kinase still bound, per cent of control (TAOK3 (human)): 70%
kinase still bound, per cent of control [4]: 86%
kinase still bound, per cent of control [5]: 100%
kinase still bound, per cent of control [6]: 93%
kinase still bound, per cent of control (RIOK2 (human)): 100%
kinase still bound, per cent of control (TGFBR2 (human)): 100%
kinase still bound, per cent of control (AURKC (human)): 89%
kinase still bound, per cent of control (STK16 (human)): 48%
kinase still bound, per cent of control (CDK16 (human)): 94%
kinase still bound, per cent of control (MAP2K4 (human)): 82%
kinase still bound, per cent of control (ACVR1 (human)): 95%
kinase still bound, per cent of control (DCLK3 (human)): 84%
kinase still bound, per cent of control [7]: 73%
kinase still bound, per cent of control (MAP4K4 (human)): 57%
kinase still bound, per cent of control (KIT (human)): 91%
kinase still bound, per cent of control (SRPK3 (human)): 89%
kinase still bound, per cent of control (STK24 (human)): 84%
kinase still bound, per cent of control (TNK1 (human)): 5.8%
kinase still bound, per cent of control (STK17A (human)): 100%
kinase still bound, per cent of control (CSNK1G1 (human)): 100%
kinase still bound, per cent of control (FLT3 (human)): 95%
kinase still bound, per cent of control (RPS6KA5 KD2 (human)): 62%
Compound: COc1cc(N2CCC(O)CC2)ccc1Nc1ncc2c(n1)N1CCc3cccc(c31)C(=O)N2C

kinase still bound, per cent of control (MINK1 (human)): 71%
kinase still bound, per cent of control (PHKG2 (human)): 6.8%
kinase still bound, per cent of control (CLK3 (human)): 100%
kinase still bound, per cent of control (RIOK1 (human)): 67%
kinase still bound, per cent of control [1]: 75%
kinase still bound, per cent of control (MAP3K5 (human)): 100%
kinase still bound, per cent of control (CAMKK1 (human)): 40%
kinase still bound, per cent of control (BMPR1B (human)): 19%
kinase still bound, per cent of control (NEK2 (human)): 84%
kinase still bound, per cent of control [2]: 25%
kinase still bound, per cent of control (CHUK (human)): 67%
kinase still bound, per cent of control (CSNK1G3 (human)): 96%
kinase still bound, per cent of control (ACVR2B (human)): 52%
kinase still bound, per cent of control (DAPK1 (human)): 64%
kinase still bound, per cent of control [3]: 32%
kinase still bound, per cent of control (ACVR2A (human)): 34%
kinase still bound, per cent of control (PIP4K2B (human)): 74%
kinase still bound, per cent of control (MYLK3 (human)): 100%
kinase still bound, per cent of control (RIPK4 (human)): 100%
kinase still bound, per cent of control (PDGFRB (human)): 13%
kinase still bound, per cent of control (TAOK3 (human)): 2.1%
kinase still bound, per cent of control [4]: 92%
kinase still bound, per cent of control [5]: 12%
kinase still bound, per cent of control [6]: 55%
kinase still bound, per cent of control (RIOK2 (human)): 43%
kinase still bound, per cent of control (TGFBR2 (human)): 32%
kinase still bound, per cent of control (AURKC (human)): 55%
kinase still bound, per cent of control (STK16 (human)): 100%
kinase still bound, per cent of control (CDK16 (human)): 94%
kinase still bound, per cent of control (MAP2K4 (human)): 93%
kinase still bound, per cent of control (ACVR1 (human)): 37%
kinase still bound, per cent of control (DCLK3 (human)): 98%
kinase still bound, per cent of control [7]: 20%
kinase still bound, per cent of control (MAP4K4 (human)): 86%
kinase still bound, per cent of control (KIT (human)): 48%
kinase still bound, per cent of control (SRPK3 (human)): 76%
kinase still bound, per cent of control (STK24 (human)): 95%
kinase still bound, per cent of control (TNK1 (human)): 100%
kinase still bound, per cent of control (STK17A (human)): 62%
kinase still bound, per cent of control (CSNK1G1 (human)): 100%
kinase still bound, per cent of control (FLT3 (human)): 69%
kinase still bound, per cent of control (RPS6KA5 KD2 (human)): 92%
Compound: COc1cc(N2CCN(C)CC2)ccc1Nc1ncc2c(n1)Nc1ccccc1NC2=O

kinase still bound, per cent of control (MINK1 (human)): 46%
kinase still bound, per cent of control (PHKG2 (human)): 46%
kinase still bound, per cent of control (CLK3 (human)): 93%
kinase still bound, per cent of control (RIOK1 (human)): 71%
kinase still bound, per cent of control [1]: 93%
kinase still bound, per cent of control (MAP3K5 (human)): 74%
kinase still bound, per cent of control (CAMKK1 (human)): 57%
kinase still bound, per cent of control (BMPR1B (human)): 91%
kinase still bound, per cent of control (NEK2 (human)): 83%
kinase still bound, per cent of control [2]: 78%
kinase still bound, per cent of control (CHUK (human)): 46%
kinase still bound, per cent of control (CSNK1G3 (human)): 82%
kinase still bound, per cent of control (ACVR2B (human)): 100%
kinase still bound, per cent of control (DAPK1 (human)): 58%
kinase still bound, per cent of control [3]: 78%
kinase still bound, per cent of control (ACVR2A (human)): 100%
kinase still bound, per cent of control (PIP4K2B (human)): 89%
kinase still bound, per cent of control (MYLK3 (human)): 86%
kinase still bound, per cent of control (RIPK4 (human)): 95%
kinase still bound, per cent of control (PDGFRB (human)): 51%
kinase still bound, per cent of control (TAOK3 (human)): 13%
kinase still bound, per cent of control [4]: 100%
kinase still bound, per cent of control [5]: 82%
kinase still bound, per cent of control [6]: 71%
kinase still bound, per cent of control (RIOK2 (human)): 100%
kinase still bound, per cent of control (TGFBR2 (human)): 94%
kinase still bound, per cent of control (AURKC (human)): 82%
kinase still bound, per cent of control (STK16 (human)): 81%
kinase still bound, per cent of control (CDK16 (human)): 97%
kinase still bound, per cent of control (MAP2K4 (human)): 71%
kinase still bound, per cent of control (ACVR1 (human)): 94%
kinase still bound, per cent of control (DCLK3 (human)): 18%
kinase still bound, per cent of control [7]: 80%
kinase still bound, per cent of control (MAP4K4 (human)): 99%
kinase still bound, per cent of control (KIT (human)): 66%
kinase still bound, per cent of control (SRPK3 (human)): 67%
kinase still bound, per cent of control (STK24 (human)): 72%
kinase still bound, per cent of control (TNK1 (human)): 7%
kinase still bound, per cent of control (STK17A (human)): 96%
kinase still bound, per cent of control (CSNK1G1 (human)): 89%
kinase still bound, per cent of control (FLT3 (human)): 99%
kinase still bound, per cent of control (RPS6KA5 KD2 (human)): 57%
Compound: COc1cc(N2CCN(C)CC2)ccc1Nc1ncc2c(n1)N(C)c1sccc1C(=O)N2C
